ChEMBL document CHEMBL1201862, “PubChem BioAssay data set” (2004)
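Five compound concentrations were applied to cells in 96-well plates for 48 hours; endpoints were derived by simple linear interpolation of the resulting dose-response curve. GI50: concentration for 50% inhibition of growth.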 Calls of active or inactive are those of the source. Rule as the data show it: active = GI50 up to about 1.1 µM and inactive = higher.

Columns and labels:
Test in all cases: DTP human tumour cell line panel, 48 h
786-0 = test system: 786-0
A498 = test system: A498
A549 = test system: A549
ACHN = test system: ACHN
BT-549 = test system: BT-549
CAKI-1 = test system: CAKI-1
CCRF-CEM = test system: CCRF-CEM
COLO 205 = test system: COLO 205
DU-145 = test system: DU-145
EKVX = test system: EKVX
HCT-116 = test system: HCT-116
HCT-15 = test system: HCT-15
HL-60 = test system: HL-60
HOP-92 = test system: HOP-92
HT-29 = test system: HT-29
Hs-578T = test system: Hs-578T
IGROV-1 = test system: IGROV-1
K562 = test system: K562
KM12 = test system: KM12
M14 = test system: M14
MDA-MB-231 = test system: MDA-MB-231
MDA-MB-435 = test system: MDA-MB-435
MDA-N = test system: MDA-N
MOLT-4 = test system: MOLT-4
Malme-3M = test system: Malme-3M
NCI-H226 = test system: NCI-H226
NCI-H23 = test system: NCI-H23
NCI-H460 = test system: NCI-H460
NCI-H522 = test system: NCI-H522
NCI/ADR-RES = test system: NCI/ADR-RES
OVCAR-4 = test system: OVCAR-4
OVCAR-5 = test system: OVCAR-5
OVCAR-8 = test system: OVCAR-8
PC-3 = test system: PC-3
RPMI-8226 = test system: RPMI-8226
RXF 393 = test system: RXF 393
SF-268 = test system: SF-268
SF-295 = test system: SF-295
SF-539 = test system: SF-539
SK-MEL-28 = test system: SK-MEL-28
SK-MEL-2 = test system: SK-MEL-2
SK-MEL-5 = test system: SK-MEL-5
SK-OV-3 = test system: SK-OV-3
SN12C = test system: SN12C
SNB-19 = test system: SNB-19
SNB-75 = test system: SNB-75
SR = test system: SR
SW-620 = test system: SW-620
T47D = test system: T47D
TK-10 = test system: TK-10
U-251 = test system: U-251
UACC-257 = test system: UACC-257
UACC-62 = test system: UACC-62
UO-31 = test system: UO-31
HCC 2998 = test system: HCC 2998
HOP-62 = test system: HOP-62
MCF7 = test system: MCF7
OVCAR-3 = test system: OVCAR-3
LOX IMVI = test system: LOX IMVI

Measured: GI50

Clc1nc(Nc2nc3ccccc3[nH]2)nc(Cl)c1-c1ccccc1
14.4 µM: HCT-15
inactive: 786-0 16.1 µM | A498 21.5 µM | A549 34.7 µM | ACHN 15.8 µM | BT-549 16.5 µM | CAKI-1 31.1 µM | CCRF-CEM 19.5 µM | COLO 205 19.1 µM | DU-145 74.3 µM | EKVX 23.6 µM | HCT-116 21.1 µM | HL-60 36.1 µM | HOP-92 8.65 µM | HT-29 16.8 µM | Hs-578T 21.5 µM | IGROV-1 19 µM | K562 25.2 µM | KM12 40.8 µM | M14 35.1 µM | MDA-MB-231 12.7 µM | MDA-MB-435 29.3 µM | MDA-N 10.3 µM | MOLT-4 76 µM | Malme-3M 19.1 µM | NCI-H226 20.5 µM | NCI-H23 17.3 µM | NCI-H460 12.2 µM | NCI-H522 17.3 µM | NCI/ADR-RES 27.7 µM | OVCAR-4 14.8 µM | OVCAR-5 28.3 µM | OVCAR-8 27.7 µM | PC-3 23 µM | RPMI-8226 34.3 µM | RXF 393 16.9 µM | SF-268 33 µM | SF-295 18 µM | SF-539 18.1 µM | SK-MEL-28 11.7 µM | SK-MEL-2 23.3 µM | SK-MEL-5 20.9 µM | SK-OV-3 22.1 µM | SN12C 12.6 µM | SNB-19 36.1 µM | SNB-75 9.38 µM | SR 29.1 µM | SW-620 11.2 µM | T47D 40.7 µM | TK-10 39.4 µM | U-251 15.9 µM | UACC-257 29.7 µM | UACC-62 18.1 µM | UO-31 20.8 µM

O=[N+]([O-])C(/C(Cl)=C(/Cl)N1CCCCC1)=C1\NCCO1
> 100 µM: HCT-15
inactive: 786-0 > 100 µM | A498 > 100 µM | A549 > 100 µM | ACHN > 100 µM | BT-549 > 100 µM | CAKI-1 > 100 µM | CCRF-CEM > 100 µM | COLO 205 > 100 µM | DU-145 > 100 µM | EKVX > 100 µM | HCC 2998 > 100 µM | HCT-116 > 100 µM | HOP-62 > 100 µM | HT-29 > 100 µM | Hs-578T > 100 µM | KM12 > 100 µM | M14 > 100 µM | MCF7 > 100 µM | MDA-MB-231 > 100 µM | MDA-MB-435 > 100 µM | MDA-N > 100 µM | MOLT-4 > 100 µM | Malme-3M > 100 µM | NCI-H226 > 100 µM | NCI-H23 > 100 µM | NCI-H460 > 100 µM | NCI/ADR-RES > 100 µM | OVCAR-3 > 100 µM | OVCAR-4 > 100 µM | OVCAR-5 > 100 µM | OVCAR-8 > 100 µM | PC-3 > 100 µM | RPMI-8226 > 100 µM | SF-268 > 100 µM | SF-295 > 100 µM | SF-539 > 100 µM | SK-MEL-28 > 100 µM | SK-MEL-2 > 100 µM | SK-OV-3 > 100 µM | SN12C > 100 µM | SNB-19 > 100 µM | SNB-75 > 100 µM | SW-620 > 100 µM | T47D > 100 µM | U-251 > 100 µM | UACC-257 > 100 µM | UACC-62 > 100 µM | UO-31 > 100 µM

C/C=C1/CN2CCC34c5ccccc5N(C)C23C2CC1C4(C(=O)OC)C(O)O2 (configuration not stated)
inactive: 786-0 > 100 µM | A498 > 100 µM | A549 > 100 µM | ACHN > 100 µM | BT-549 > 100 µM | CAKI-1 > 100 µM | CCRF-CEM > 100 µM | COLO 205 > 100 µM | DU-145 > 100 µM | EKVX > 100 µM | HCC 2998 > 100 µM | HCT-116 > 100 µM | HL-60 > 100 µM | HOP-62 > 100 µM | HOP-92 > 100 µM | HT-29 > 100 µM | Hs-578T > 100 µM | IGROV-1 > 100 µM | K562 > 100 µM | KM12 > 100 µM | LOX IMVI > 100 µM | M14 > 100 µM | MCF7 > 100 µM | MDA-MB-231 > 100 µM | MDA-MB-435 > 100 µM | MDA-N > 100 µM | MOLT-4 > 100 µM | NCI-H226 > 100 µM | NCI-H23 > 100 µM | NCI-H460 > 100 µM | NCI-H522 > 100 µM | NCI/ADR-RES > 100 µM | OVCAR-3 > 100 µM | OVCAR-4 > 100 µM | OVCAR-5 > 100 µM | OVCAR-8 > 100 µM | PC-3 > 100 µM | RPMI-8226 > 100 µM | SF-268 > 100 µM | SF-295 > 100 µM | SF-539 > 100 µM | SK-MEL-28 > 100 µM | SK-MEL-2 > 100 µM | SK-MEL-5 > 100 µM | SK-OV-3 > 100 µM | SN12C > 100 µM | SNB-19 > 100 µM | SNB-75 > 100 µM | SW-620 > 100 µM | T47D > 100 µM | TK-10 > 100 µM | U-251 > 100 µM | UACC-257 > 100 µM | UACC-62 > 100 µM | UO-31 > 100 µM
> 100 µM: HCT-15

Cc1ccc(/N=N/c2c(C)c(C#N)c(=S)n(C3OC(CO)C(O)C(O)C3O)c2-c2ccccc2)cc1 (configuration not stated)
active: A498 0.74 µM
21.9 µM: HCT-15
inactive: 786-0 21 µM | A549 32 µM | ACHN 30.7 µM | BT-549 19.6 µM | CAKI-1 25.7 µM | CCRF-CEM 11.5 µM | COLO 205 25.1 µM | DU-145 38.6 µM | HCC 2998 41.1 µM | HCT-116 13.2 µM | HL-60 36.8 µM | HOP-62 24.9 µM | HT-29 27.7 µM | Hs-578T 24.5 µM | IGROV-1 31.3 µM | K562 8.13 µM | KM12 19 µM | LOX IMVI 17.2 µM | M14 14.6 µM | MCF7 18.2 µM | MDA-MB-231 40 µM | MDA-MB-435 6.18 µM | MDA-N 8.07 µM | MOLT-4 9.73 µM | Malme-3M 24.9 µM | NCI-H23 16.5 µM | NCI-H460 27.7 µM | NCI/ADR-RES 29 µM | OVCAR-3 19.5 µM | OVCAR-4 29 µM | OVCAR-5 28.9 µM | PC-3 15 µM | RPMI-8226 28.9 µM | RXF 393 17.8 µM | SF-268 26.7 µM | SF-295 20.5 µM | SF-539 28.5 µM | SK-MEL-28 16.5 µM | SK-MEL-2 19.5 µM | SK-MEL-5 11.2 µM | SK-OV-3 34.1 µM | SN12C 31.4 µM | SNB-19 19.6 µM | SNB-75 20.1 µM | SW-620 15.6 µM | T47D 22.4 µM | TK-10 29.5 µM | U-251 14.4 µM | UACC-257 28.1 µM | UACC-62 14.5 µM | UO-31 33.5 µM
